From patent publication US11000033B2, “Ketone or oxime compound, and herbicide” (NISSAN CHEMICAL CORPORATION, priority 2014, dated 2021)

Columns and labels:
Type in all cases: in vivo
[1] = tested on: directly sowed rice plant; test: Test Example 3: effect on crop by foliage application, Wagner pot (symbol b); conditions: application herbicide amount 320 g/ha
Procedure, shortened: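 Wagner pot (1/10000 are), alluvial soil, submerged 0.1–0.5 cm; sown E. crus-galli var. crus-galli, L. chinensis, C. difformis, rice; greenhouse 25–30 °C.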

beet = test: Test Example 4: effect on crop by soil treatment (symbol f); conditions: application herbicide amount 320 g/ha
Procedure, shortened: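 Plants grew in a 25° C. to 30° C. greenhouse after spot-sowing of seeds, including beet, rapeseed, wheat and rice, into sterilized diluvial soil under roughly 1.5 cm of cover soil.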

Monochoria vaginalis = test: Test Example 1: herbicidal activity, application before weed generation in submerged conditions (symbol C); conditions: application herbicide amount 320 g/ha
Procedure, shortened: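 In a flooded pot test with alluvial soil, the emulsion-formulated compound was diluted with water to a predetermined amount and applied to the floodwater immediately on the sowing day. Pots were held in a greenhouse at 25–30 °C for 3 weeks before each weed was rated.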

Scirpus juncoides = test: Test Example 2: herbicidal activity, application during weed generation in submerged conditions (symbol B); conditions: Table 23; application herbicide amount 320 g/ha; grade 0-5 by criteria of Test Example 1
Procedure, shortened: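 Read-out: herbicidal effect on each species rated on a visual scale 3 weeks after treatment. Plants were raised together from seed in flooded alluvial soil (4 cm water) at 25° C. to 30° C. and treated at one to two leaves by water-surface application of diluted emulsion.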

soybean = test: Test Example 5: effect on crop by foliage application, plastic box (symbol d); conditions: 320 g/ha, 3 weeks after application
Procedure, shortened: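 Greenhouse culture at 25° C. to 30° C. followed spot-like sowing into sterilized diluvial soil, with seed covered by roughly 1.5 cm of soil.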

Stellaria media = test: Test Example 4: herbicidal effect by soil treatment (symbol P); conditions: application herbicide amount 320 g/ha
Procedure, shortened: (§1)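 Seeds were sown in sterilized diluvial soil, covered with about 1.5 cm of soil, and the soil surface was sprayed with a water-diluted emulsion of the compound at a predetermined rate. Plants grew in a greenhouse at 25° C. to 30° C.; effects were scored visually 3 weeks after application.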

Abutilon theophrasti = test: Test Example 4: herbicidal effect by soil treatment (symbol M); conditions: application herbicide amount 320 g/ha
Procedure, shortened: as §1

Lolium multiflorum Lam. = test: Test Example 5: herbicidal effect by foliage application, plastic box (symbol K); conditions: 320 g/ha, 3 weeks after application
Procedure, shortened: (§2)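 Post-emergence spray; diluvial soil (sterilized), ~1.5 cm seed cover; greenhouse 25–30° C; 14-day-old plants; water-diluted emulsion at predetermined dose; visual score at 3 wk post-treatment.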

[2] = tested on: Echinochloa crus-galli var. crus-galli; test: Test Example 5: herbicidal effect by foliage application, plastic box (symbol H); conditions: 320 g/ha, 3 weeks after application
Procedure, shortened: as §2

SMILES | effect on crop b (directly sowed rice plant), grade 0-5 [1] | f: beet, effect on crop grade (beet) | Herbicidal effect grade, C: Monochoria vaginalis (Monochoria vaginalis) | Herbicidal effect grade, B: Scirpus juncoides (Scirpus juncoides) | d: soybean, effect on crop (criteria of Test Example 1) (soybean) | P: Stellaria media, herbicidal effect grade (Stellaria media) | M: Abutilon theophrasti, herbicidal effect grade (Abutilon theophrasti) | K: Lolium multiflorum Lam., herbicidal effect (criteria of Test Example 1) (Lolium multiflorum Lam.) | H: Echinochloa crus-galli var. crus-galli, herbicidal effect (criteria of Test Example 1) [2] | f (beet) effect on crop grade (beet) | d: soybean, effect on crop grade (soybean) | P (Stellaria media) herbicidal effect grade (Stellaria media) | M (Abutilon theophrasti) herbicidal effect grade (Abutilon theophrasti) | K: Lolium multiflorum Lam., herbicidal effect grade (Lolium multiflorum Lam.) | H: Echinochloa crus-galli var. crus-galli, herbicidal effect grade [2] | Effect on crop grade, f: beet (beet) | Herbicidal effect grade, P: Stellaria media (Stellaria media) | Herbicidal effect grade, M: Abutilon theophrasti (Abutilon theophrasti)
CON=C(C)CC1CC(O)=C(c2c(C)cc(-c3ccc(F)cc3)cc2C)C1=O (mixture of isomers) [6-058] | 5 (Herbicidal ratio of 90% or more (almost completely withered)) | 4 (Herbicidal ratio of 70% or higher and lower than 90%) | 5 (Herbicidal ratio of 90% or more (almost completely withered)) | 5 (Herbicidal ratio of 90% or more (almost completely withered)) | 2 (Herbicidal ratio of 20% or higher and lower than 40%) | 5 (Herbicidal ratio of 90% or more (almost completely withered)) | 5 (Herbicidal ratio of 90% or more (almost completely withered)) | 5 (Herbicidal ratio of 90% or more (almost completely withered)) | 5 (Herbicidal ratio of 90% or more (almost completely withered)) |  |  |  |  |  |  |  |  | 
CON=C(C)CC1CC(OC(=O)CCCC(C)=O)=C(c2c(C)cc(-c3ccc(Cl)cc3)cc2C)C1=O (stereo not drawn) [6-080] | 5 (Herbicidal ratio of 90% or more (almost completely withered)) | 0 (Herbicidal ratio of 5% or lower (almost no effect)) | 2 (Herbicidal ratio of 20% or higher and lower than 40%) | 4 (Herbicidal ratio of 70% or higher and lower than 90%) | 1 (Herbicidal ratio of 5% or higher and lower than 20%) | 0 (Herbicidal ratio of 5% or lower (almost no effect)) | 0 (Herbicidal ratio of 5% or lower (almost no effect)) | 5 (Herbicidal ratio of 90% or more (almost completely withered)) | 5 (Herbicidal ratio of 90% or more (almost completely withered)) |  |  |  |  |  |  |  |  | 
CON=C(C)C(C(C)=NOC)C1CC(O)=C(c2c(C)cc(C)cc2C)C1=O (stereo not drawn) [1-021] | 0 (Herbicidal ratio of 5% or lower (almost no effect)) |  | 0 (Herbicidal ratio of 5% or lower (almost no effect)) | 0 (Herbicidal ratio of 5% or lower (almost no effect)) |  |  |  |  |  | 0 (Herbicidal ratio of 5% or lower (almost no effect)) | 0 (Herbicidal ratio of 5% or lower (almost no effect)) | 0 (Herbicidal ratio of 5% or lower (almost no effect)) | 0 (Herbicidal ratio of 5% or lower (almost no effect)) | 4 (Herbicidal ratio of 70% or higher and lower than 90%) | 3 (Herbicidal ratio of 40% or higher and lower than 70%) |  |  | 
CON=C(C)CC1CC(O)=C(c2c(C)cc(C)cc2SC)C1=O (stereo not drawn) [6-075] | 4 (Herbicidal ratio of 70% or higher and lower than 90%) | 0 (Herbicidal ratio of 5% or lower (almost no effect)) | 2 (Herbicidal ratio of 20% or higher and lower than 40%) | 0 (Herbicidal ratio of 5% or lower (almost no effect)) | 0 (Herbicidal ratio of 5% or lower (almost no effect)) | 0 (Herbicidal ratio of 5% or lower (almost no effect)) | 0 (Herbicidal ratio of 5% or lower (almost no effect)) | 5 (Herbicidal ratio of 90% or more (almost completely withered)) | 2 (Herbicidal ratio of 20% or higher and lower than 40%) |  |  |  |  |  |  |  |  | 
CON=C(C)CC1CC(O)=C(c2c(C)cc(-c3ccc(Cl)cc3Cl)cc2C)C1=O (stereo not drawn) [6-088] | 5 (Herbicidal ratio of 90% or more (almost completely withered)) |  | 0 (Herbicidal ratio of 5% or lower (almost no effect)) | 2 (Herbicidal ratio of 20% or higher and lower than 40%) | 5 (Herbicidal ratio of 90% or more (almost completely withered)) |  |  | 5 (Herbicidal ratio of 90% or more (almost completely withered)) | 5 (Herbicidal ratio of 90% or more (almost completely withered)) |  |  |  |  |  |  | 0 (Herbicidal ratio of 5% or lower (almost no effect)) | 5 (Herbicidal ratio of 90% or more (almost completely withered)) | 3 (Herbicidal ratio of 40% or higher and lower than 70%)
COC(=O)CON=C(C)CC1CC(O)=C(c2c(C)cc(C)cc2C)C1=O (stereo not drawn) [1-023] | 4 (Herbicidal ratio of 70% or higher and lower than 90%) |  | 0 (Herbicidal ratio of 5% or lower (almost no effect)) | 0 (Herbicidal ratio of 5% or lower (almost no effect)) |  |  |  |  |  | 0 (Herbicidal ratio of 5% or lower (almost no effect)) | 0 (Herbicidal ratio of 5% or lower (almost no effect)) | 0 (Herbicidal ratio of 5% or lower (almost no effect)) | 0 (Herbicidal ratio of 5% or lower (almost no effect)) | 4 (Herbicidal ratio of 70% or higher and lower than 90%) | 4 (Herbicidal ratio of 70% or higher and lower than 90%) |  |  | 
CON=C(C)CC1CC(OC(=O)N2CCOCC2)=C(c2c(C)cc(-c3ccc(Cl)cc3)cc2OC)C1=O (stereo not drawn) [6-078, 2-(4′-chloro-3-methoxy-5-methyl-[1,1′-biphenyl]-4-yl)-4-{2-(methoxyimino)propyl}-3-oxocyclopent-1-ene-1-yl morpholine-4-carboxylate] | 5 (Herbicidal ratio of 90% or more (almost completely withered)) | 0 (Herbicidal ratio of 5% or lower (almost no effect)) | 4 (Herbicidal ratio of 70% or higher and lower than 90%) | 2 (Herbicidal ratio of 20% or higher and lower than 40%) | 0 (Herbicidal ratio of 5% or lower (almost no effect)) | 0 (Herbicidal ratio of 5% or lower (almost no effect)) | 1 (Herbicidal ratio of 5% or higher and lower than 20%) | 4 (Herbicidal ratio of 70% or higher and lower than 90%) | 5 (Herbicidal ratio of 90% or more (almost completely withered)) |  |  |  |  |  |  |  |  | 
CON=C(C)CC1CC(O)=C(c2c(F)cc(C)cc2OC)C1=O (stereo not drawn) [6-108] | 5 (Herbicidal ratio of 90% or more (almost completely withered)) |  | 0 (Herbicidal ratio of 5% or lower (almost no effect)) | 1 (Herbicidal ratio of 5% or higher and lower than 20%) | 3 (Herbicidal ratio of 40% or higher and lower than 70%) |  |  | 5 (Herbicidal ratio of 90% or more (almost completely withered)) | 5 (Herbicidal ratio of 90% or more (almost completely withered)) |  |  |  |  |  |  | 0 (Herbicidal ratio of 5% or lower (almost no effect)) | 3 (Herbicidal ratio of 40% or higher and lower than 70%) | 5 (Herbicidal ratio of 90% or more (almost completely withered))
